From ChEMBL document CHEMBL5338815 (J Med Chem, 2023)
Active and inactive are the calls of the source. The calls are words filed in the database; no cut-off is given here.

Experiments:
MDA-MB-231 [1] = assay: Reduction in H3K9me2 level in human MDA-MB-231 cells at 10 uM by Western blot analysis; format: functional, cell-based; conditions: time 24-96 hrs, TDE = time-dependent effect
[2] = target: T1, Histone-lysine N-methyltransferase EHMT2 (Homo sapiens) (UniProt Q96KQ7); assay: Covalent inhibition of recombinant G9a (unknown origin) assessed as adduct formation intensity by mass spectrometric analysis; conditions: time <= 16.0 hrs, TDE = time-dependent effect
T1 sequence (whole entry): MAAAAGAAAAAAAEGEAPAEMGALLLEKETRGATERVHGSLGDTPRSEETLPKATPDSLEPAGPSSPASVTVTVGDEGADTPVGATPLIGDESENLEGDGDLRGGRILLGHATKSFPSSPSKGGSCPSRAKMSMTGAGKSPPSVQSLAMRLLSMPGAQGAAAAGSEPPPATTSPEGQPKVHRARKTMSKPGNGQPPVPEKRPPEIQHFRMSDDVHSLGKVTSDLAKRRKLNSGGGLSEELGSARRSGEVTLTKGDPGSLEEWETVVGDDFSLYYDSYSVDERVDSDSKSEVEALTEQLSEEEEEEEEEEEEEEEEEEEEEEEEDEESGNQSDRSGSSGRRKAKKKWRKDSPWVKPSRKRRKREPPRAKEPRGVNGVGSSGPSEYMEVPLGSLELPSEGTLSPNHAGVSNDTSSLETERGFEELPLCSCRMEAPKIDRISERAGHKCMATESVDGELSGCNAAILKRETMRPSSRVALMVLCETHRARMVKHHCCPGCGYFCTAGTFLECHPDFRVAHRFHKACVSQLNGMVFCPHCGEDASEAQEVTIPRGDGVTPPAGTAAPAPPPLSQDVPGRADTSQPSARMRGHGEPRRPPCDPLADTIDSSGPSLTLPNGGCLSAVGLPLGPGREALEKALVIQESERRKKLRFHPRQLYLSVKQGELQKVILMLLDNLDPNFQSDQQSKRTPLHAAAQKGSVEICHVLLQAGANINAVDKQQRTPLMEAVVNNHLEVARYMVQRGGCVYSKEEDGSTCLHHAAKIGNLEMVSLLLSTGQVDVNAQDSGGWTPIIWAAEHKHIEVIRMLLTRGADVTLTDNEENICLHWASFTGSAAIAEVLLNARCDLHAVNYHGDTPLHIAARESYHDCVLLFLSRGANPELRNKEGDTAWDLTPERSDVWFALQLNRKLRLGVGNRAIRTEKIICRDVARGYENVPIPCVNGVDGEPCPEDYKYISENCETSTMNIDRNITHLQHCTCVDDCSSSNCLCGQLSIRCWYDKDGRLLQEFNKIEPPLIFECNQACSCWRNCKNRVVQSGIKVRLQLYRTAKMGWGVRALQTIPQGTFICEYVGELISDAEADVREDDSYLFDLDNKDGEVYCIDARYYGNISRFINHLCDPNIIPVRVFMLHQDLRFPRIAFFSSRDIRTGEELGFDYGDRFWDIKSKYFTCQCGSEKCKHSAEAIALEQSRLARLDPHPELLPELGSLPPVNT

[3] = target: Protein arginine N-methyltransferase 5 (Homo sapiens, UniProt O14744); assay: Inhibition of PRMT5 (unknown origin)
[4] = target: Histone-lysine N-methyltransferase EZH2 (Homo sapiens, UniProt Q15910); assay: Inhibition of EZH2 (unknown origin)
[5] = target: DNA (cytosine-5)-methyltransferase 1 (Homo sapiens, UniProt P26358); assay: Inhibition of DNMT1 (unknown origin)
[6] = target: T2, Histone-arginine methyltransferase CARM1 (Homo sapiens, UniProt Q86X55); assay: Inhibition of PRMT4 (unknown origin)
T2 sequence (Q86X55 whole entry): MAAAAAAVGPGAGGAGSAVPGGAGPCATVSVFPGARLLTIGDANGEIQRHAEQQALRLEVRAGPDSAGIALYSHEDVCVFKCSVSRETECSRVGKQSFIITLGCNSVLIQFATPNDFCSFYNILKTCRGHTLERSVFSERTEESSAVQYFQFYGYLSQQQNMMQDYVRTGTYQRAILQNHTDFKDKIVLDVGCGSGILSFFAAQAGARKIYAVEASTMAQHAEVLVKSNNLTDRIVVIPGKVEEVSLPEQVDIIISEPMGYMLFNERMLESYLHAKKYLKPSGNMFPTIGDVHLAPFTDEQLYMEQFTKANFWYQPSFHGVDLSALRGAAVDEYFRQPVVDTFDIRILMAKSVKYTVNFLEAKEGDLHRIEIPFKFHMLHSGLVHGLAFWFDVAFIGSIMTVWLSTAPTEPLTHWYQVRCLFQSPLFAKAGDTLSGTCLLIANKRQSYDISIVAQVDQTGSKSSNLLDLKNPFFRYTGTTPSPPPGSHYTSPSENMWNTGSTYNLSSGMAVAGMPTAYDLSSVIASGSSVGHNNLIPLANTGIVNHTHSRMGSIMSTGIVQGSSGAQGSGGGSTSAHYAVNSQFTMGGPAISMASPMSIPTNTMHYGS

MDA-MB-231 [7] = assay: Reduction in H3K9me2 level in human MDA-MB-231 cells at 10 uM incubated for 48 hrs followed replaced with fresh medium measured after 24 hrs by Western blot analysis; format: functional, cell-based
MDA-MB-231 [8] = assay: Reduction in H3K9me2 level in human MDA-MB-231 cells at 10 uM incubated for 48 hrs followed replaced with fresh medium measured after 48 hrs by Western blot analysis; format: functional, cell-based
PANC-1 = assay: In vivo antitumor activity against human PANC-1 cells xenografted in Balb/c mouse model assessed as reduction in H3K9me2 level in tumor at 2 mg/kg, ip treated for 22 days relative to control; format: functional, organism-based; conditions: time 22.0 day
[9] = target: Histone-lysine N-methyltransferase 2B (Homo sapiens, UniProt Q9UMN6); assay: Inhibition of MLL4 (unknown origin)
Sequence of Histone-lysine N-methyltransferase 2B (Q9UMN6 whole entry): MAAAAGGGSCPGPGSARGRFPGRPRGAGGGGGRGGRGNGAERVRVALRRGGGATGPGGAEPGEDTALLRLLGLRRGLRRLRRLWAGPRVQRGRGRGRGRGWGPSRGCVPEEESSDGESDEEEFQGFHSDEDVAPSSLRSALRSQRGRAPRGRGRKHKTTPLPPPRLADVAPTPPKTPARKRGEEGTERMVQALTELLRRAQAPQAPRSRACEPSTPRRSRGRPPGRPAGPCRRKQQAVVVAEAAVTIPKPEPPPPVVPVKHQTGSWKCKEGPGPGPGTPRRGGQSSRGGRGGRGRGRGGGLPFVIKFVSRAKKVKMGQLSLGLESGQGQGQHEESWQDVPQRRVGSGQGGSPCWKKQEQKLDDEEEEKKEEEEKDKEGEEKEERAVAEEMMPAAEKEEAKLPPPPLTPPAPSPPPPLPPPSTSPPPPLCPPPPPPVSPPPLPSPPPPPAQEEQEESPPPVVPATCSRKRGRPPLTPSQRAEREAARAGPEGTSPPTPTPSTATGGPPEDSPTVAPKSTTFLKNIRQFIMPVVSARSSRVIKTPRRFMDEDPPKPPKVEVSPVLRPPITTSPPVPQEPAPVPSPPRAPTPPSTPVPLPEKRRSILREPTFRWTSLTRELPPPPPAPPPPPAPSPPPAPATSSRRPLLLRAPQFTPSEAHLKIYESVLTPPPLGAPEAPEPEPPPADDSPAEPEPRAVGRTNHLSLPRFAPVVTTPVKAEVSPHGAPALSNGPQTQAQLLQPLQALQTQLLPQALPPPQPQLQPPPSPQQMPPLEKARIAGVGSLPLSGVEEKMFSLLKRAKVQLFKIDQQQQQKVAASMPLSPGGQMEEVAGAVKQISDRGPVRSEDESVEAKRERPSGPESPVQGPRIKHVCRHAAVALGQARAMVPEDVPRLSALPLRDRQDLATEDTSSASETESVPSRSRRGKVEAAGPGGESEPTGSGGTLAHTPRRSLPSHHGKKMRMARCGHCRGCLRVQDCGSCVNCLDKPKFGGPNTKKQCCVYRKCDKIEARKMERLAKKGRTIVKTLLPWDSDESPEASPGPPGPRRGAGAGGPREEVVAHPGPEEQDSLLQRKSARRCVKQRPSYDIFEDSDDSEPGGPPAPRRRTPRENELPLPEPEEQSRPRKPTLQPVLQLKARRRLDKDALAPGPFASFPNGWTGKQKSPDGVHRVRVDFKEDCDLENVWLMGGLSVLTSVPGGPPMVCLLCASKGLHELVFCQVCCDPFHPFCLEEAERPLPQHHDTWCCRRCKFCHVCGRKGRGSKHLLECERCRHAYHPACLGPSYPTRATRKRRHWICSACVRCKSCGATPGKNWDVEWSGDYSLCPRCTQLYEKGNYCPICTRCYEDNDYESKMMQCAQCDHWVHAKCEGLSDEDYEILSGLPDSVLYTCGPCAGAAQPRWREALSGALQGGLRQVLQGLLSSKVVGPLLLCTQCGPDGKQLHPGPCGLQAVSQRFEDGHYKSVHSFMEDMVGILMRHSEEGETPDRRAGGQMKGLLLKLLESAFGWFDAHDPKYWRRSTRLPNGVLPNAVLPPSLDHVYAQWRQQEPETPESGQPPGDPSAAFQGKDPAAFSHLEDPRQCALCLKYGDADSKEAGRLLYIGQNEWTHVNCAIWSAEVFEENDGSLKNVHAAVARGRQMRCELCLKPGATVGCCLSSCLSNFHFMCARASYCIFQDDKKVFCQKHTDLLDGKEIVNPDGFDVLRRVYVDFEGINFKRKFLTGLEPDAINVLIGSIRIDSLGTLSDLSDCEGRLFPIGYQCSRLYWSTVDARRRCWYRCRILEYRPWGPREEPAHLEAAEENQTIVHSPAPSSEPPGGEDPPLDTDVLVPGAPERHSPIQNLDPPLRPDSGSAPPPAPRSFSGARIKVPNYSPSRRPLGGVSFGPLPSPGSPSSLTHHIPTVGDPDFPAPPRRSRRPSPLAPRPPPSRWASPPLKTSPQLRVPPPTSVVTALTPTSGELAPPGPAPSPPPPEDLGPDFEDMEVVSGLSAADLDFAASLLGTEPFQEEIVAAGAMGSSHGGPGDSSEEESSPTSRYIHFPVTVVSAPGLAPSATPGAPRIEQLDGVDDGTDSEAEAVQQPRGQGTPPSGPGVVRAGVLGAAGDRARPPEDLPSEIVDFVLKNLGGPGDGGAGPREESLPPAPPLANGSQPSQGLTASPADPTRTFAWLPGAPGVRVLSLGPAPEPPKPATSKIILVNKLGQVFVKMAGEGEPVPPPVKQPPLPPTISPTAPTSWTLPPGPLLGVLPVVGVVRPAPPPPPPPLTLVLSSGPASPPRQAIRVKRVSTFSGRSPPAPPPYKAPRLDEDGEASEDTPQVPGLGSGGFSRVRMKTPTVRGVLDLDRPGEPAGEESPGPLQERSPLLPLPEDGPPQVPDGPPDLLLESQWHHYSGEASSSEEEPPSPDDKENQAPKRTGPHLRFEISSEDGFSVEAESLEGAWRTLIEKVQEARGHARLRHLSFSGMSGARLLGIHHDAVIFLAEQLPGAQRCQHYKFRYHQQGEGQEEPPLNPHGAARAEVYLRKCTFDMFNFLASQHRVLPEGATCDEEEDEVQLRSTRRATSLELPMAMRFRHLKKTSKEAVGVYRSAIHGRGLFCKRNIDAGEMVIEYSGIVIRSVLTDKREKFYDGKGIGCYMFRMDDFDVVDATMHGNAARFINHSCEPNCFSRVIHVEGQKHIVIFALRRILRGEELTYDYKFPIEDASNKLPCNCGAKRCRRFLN

Sequence of DNA (cytosine-5)-methyltransferase 1 (P26358 whole entry): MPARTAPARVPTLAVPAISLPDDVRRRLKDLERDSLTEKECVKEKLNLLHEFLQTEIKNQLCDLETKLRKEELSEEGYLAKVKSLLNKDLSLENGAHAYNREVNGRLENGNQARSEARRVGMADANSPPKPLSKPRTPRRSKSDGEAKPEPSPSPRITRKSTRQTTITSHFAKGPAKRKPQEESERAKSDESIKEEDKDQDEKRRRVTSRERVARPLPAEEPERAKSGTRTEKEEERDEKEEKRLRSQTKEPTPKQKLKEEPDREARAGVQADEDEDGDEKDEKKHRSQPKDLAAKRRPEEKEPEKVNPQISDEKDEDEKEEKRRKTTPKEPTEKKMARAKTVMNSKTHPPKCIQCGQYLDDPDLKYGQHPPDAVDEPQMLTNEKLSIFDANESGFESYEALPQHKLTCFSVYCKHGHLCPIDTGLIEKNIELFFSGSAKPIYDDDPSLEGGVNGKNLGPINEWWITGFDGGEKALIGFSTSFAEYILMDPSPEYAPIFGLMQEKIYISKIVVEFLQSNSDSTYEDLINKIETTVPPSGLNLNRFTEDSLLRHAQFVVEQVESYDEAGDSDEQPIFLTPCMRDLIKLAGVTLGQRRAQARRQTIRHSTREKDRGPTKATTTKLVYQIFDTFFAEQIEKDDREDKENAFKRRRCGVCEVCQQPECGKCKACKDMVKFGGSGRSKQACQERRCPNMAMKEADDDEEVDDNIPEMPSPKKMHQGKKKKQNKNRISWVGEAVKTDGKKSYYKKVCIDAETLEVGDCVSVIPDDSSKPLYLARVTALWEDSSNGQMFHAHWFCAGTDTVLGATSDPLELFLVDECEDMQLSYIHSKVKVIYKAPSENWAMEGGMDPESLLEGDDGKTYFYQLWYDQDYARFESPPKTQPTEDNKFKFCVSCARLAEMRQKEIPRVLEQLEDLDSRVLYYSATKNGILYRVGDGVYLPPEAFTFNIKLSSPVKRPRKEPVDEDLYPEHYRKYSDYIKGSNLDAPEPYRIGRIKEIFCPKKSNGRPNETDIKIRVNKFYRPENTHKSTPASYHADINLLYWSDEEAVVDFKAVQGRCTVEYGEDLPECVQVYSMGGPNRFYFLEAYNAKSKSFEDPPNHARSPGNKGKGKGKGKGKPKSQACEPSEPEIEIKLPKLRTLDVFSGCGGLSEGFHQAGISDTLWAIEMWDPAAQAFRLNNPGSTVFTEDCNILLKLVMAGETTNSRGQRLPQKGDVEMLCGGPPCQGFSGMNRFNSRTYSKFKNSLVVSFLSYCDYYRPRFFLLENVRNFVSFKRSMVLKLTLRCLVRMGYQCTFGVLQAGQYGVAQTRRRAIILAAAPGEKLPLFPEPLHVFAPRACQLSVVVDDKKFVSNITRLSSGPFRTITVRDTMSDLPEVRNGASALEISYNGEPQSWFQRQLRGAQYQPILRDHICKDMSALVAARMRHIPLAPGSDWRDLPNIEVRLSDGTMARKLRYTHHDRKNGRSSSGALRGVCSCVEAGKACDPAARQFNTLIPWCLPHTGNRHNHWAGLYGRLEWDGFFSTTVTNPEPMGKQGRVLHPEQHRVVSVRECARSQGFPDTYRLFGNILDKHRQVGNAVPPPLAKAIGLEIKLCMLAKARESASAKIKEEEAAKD
Sequence of Protein arginine N-methyltransferase 5 (O14744 whole entry): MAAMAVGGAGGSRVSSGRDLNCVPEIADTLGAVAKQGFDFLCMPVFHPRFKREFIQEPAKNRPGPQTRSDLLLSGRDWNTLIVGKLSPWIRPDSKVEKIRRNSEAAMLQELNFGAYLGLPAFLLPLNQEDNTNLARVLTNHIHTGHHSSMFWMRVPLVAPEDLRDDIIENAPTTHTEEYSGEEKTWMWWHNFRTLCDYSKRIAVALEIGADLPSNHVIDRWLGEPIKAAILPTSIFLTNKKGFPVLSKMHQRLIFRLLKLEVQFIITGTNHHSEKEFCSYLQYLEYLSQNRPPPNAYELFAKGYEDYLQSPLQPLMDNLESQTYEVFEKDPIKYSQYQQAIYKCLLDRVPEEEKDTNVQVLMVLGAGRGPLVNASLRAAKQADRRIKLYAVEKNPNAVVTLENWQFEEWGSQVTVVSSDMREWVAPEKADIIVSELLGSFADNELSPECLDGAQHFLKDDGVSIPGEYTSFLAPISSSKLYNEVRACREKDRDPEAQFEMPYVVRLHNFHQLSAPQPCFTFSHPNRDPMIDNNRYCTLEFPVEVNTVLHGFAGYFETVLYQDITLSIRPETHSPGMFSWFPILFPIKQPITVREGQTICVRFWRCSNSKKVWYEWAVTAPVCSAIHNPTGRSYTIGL

C=CC(=O)N(C)c1nc(NC2CCN(C)CC2)c2cc(OC)c(OCCCN3CCCC3)cc2n1
inhibition (MDA-MB-231 [1]): Tde
inhibition [2]: Tde
IC50 [3]: > 20 µM
IC50 [4]: > 20 µM
IC50 [5]: > 20 µM
IC50 [6]: 6.68 µM
inhibition (MDA-MB-231 [7]): Active
inhibition (MDA-MB-231 [8]): inactive
inhibition (PANC-1): Active
IC50 [9]: > 20 µM
